# Measured values as given in patent US8344178B2, “Processes for producing and recovering shikimic acid” (priority 2007, dated 2013).
# Columns and labels:
# [1] = system: E. coli host strain LBB427 transformed with plasmid pXT1483; assay: Shikimic acid from a phosphate-limited high-density fermentation culture with glyphosate (Example 10); format: cell-based, Escherichia coli; details: optical density of 40; 20 millimolar; twelve hours after addition; sample at pH 1.0, 60 degrees Celsius for 15 minutes
# Description: The host strain LBB427 transformed with the plasmid pXT1483 can be grown to high optical densities in a phosphate-limited fermentation culture. Fermentations are conducted in a chemically-defined minimal medium containing 5.9 grams of anhydrous ammonium sulfate ((NH4)2SO4), 1.8 grams of anhydrous dibasic potassium phosphate (K2HPO4), 1.0 grams of monobasic sodium phosphate monohydrate (NaH2PO4—H2O), 550 milligrams of magnesium sulfate heptahydrate (MgSO4-7H2O), 27 milligrams of ferric chloride hexahydrate (FeCl3-6H2O), 0.5 milligrams of zinc sulfate heptahydrate (ZnSO4-7H2O), 0.9 milligrams of cobalt chloride hexahydrate (CoCl2-6H2O), 0.9 milligrams of sodium molybdate dihydrate (Na2MoO4-2H2O), 1.1 milligrams of cupric sulfate pentahydrate (CuSO4-5H2O), 0.3 milligrams of boric acid (H3BO3), and 0.7 milligrams of manganese sulfate monohydrate (MnSO4—H2O) per liter of water. The fermenter is maintained at 37 degrees Celsius. The pH is maintained at 7.0 by the controlled addition of concentrated (about 29%) ammonium hydroxide (NH4OH). […]
# Twelve hours after N-(phosphonomethyl)glycine addition, samples of the fermentation cultures are taken for analysis of shikimic acid levels. […] The cells are pelleted by centrifugation, and the culture supernatants are analyzed for shikimic acid content using the HPLC assay described in Example 5.
# Soybean = assay: Shikimate accumulation in soybean after glyphosate treatment (Example 2, FIG. 6); format: in vivo; details: ROUNDUP WEATHERMAX at 100, 200, 400 and 800 g a.e./ha; 1, 2, 3 and 4 days after treatment
# Description: (§1) Soybean plants were established in a greenhouse in 4 inch pots and treated with glyphosate at an early vegetative stage. Approximately 1 plant per pot was treated at the V2 growth stage. Plants were treated with ROUNDUP WEATHERMAX in a track sprayer, at 0, 100, 200, 400 and 800 g a.e./ha and returned to the greenhouse. All treatments were replicated 5 times. Leaves were harvested at five time points: immediately after spray (t0), and at 1, 2, 3 and 4 days after treatment. After harvest, leaves were frozen on dry ice, weighed, and then stored at −80 C until extraction and analysis.
# (§2) For t0 harvest, leaves were harvested immediately after treatment. For the 1, 2, 3 and 4 day harvest, plants were washed thoroughly with water from a spray hose and then allowed to dry before harvest. This procedure allowed for the measurement of the concentration of shikimic acid as well as an estimate of the concentration of glyphosate treatment (t0) and the amount of glyphosate absorbed and retained in treated leaves (1, 2, 3 and 4 days after treatment).
# (§3) Leaf tissue was ground frozen on dry ice to a frozen powder. […]
# (§4) Extract analysis was performed using both HPLC/MS and HPLC/uv (210 nm) detection. […] Shikimic acid was also analyzed on a separate Agilent 1100 HPLC system equipped with a 4.6 mm×250 mm, 5 micron ODS2 Waters Spherisorb® column (P/N PSS831915) using a photodiode array detector.
# Alfalfa = assay: Shikimate accumulation in alfalfa over time after glyphosate treatment (Example 1, FIG. 5); format: in vivo; details: ROUNDUP WEATHERMAX at 100, 200, 400 and 800 g a.e./ha; 1, 2, 3 and 4 days after treatment
# Description: as §1, with “Alfalfa was” for “Soybean plants were”, “8 plants” for “1 plant”, “were” for “was”, “V4” for “V2”
# as §2, §3, §4
# [2] = system: E. coli host strain LBB427, untransformed or transformed with plasmid pXT1457 or pXT1483; assay: Growth of E. coli strains under phosphate-limiting conditions combined with glyphosate treatment (Example 9); format: cell-based, Escherichia coli; details: for Shikimic acid in the culture supernatant: phosphate-limitation, 20 millimolar, 21.5 hours after addition
# Description: A phosphate-limiting culture medium was developed by the Applicants, containing anhydrous magnesium sulfate (MgSO4) at 192 milligrams per liter, ammonium chloride (NH4Cl) at 5.35 grams per liter, potassium chloride (KCl) at 3.73 grams per liter, sodium chloride (NaCl) at 1.17 grams per liter, triethanolamine (a buffering compound) at 22.3 grams per liter, and glucose at 1.5 grams per liter. The pH of the culture medium was 7.0. […] This culture medium was designated PF culture medium (standing for phosphate-free culture medium). However, a phosphate-limiting medium may be formulated for use in the present invention such that, while not phosphate-free, it contains minimal amounts of phosphate (i.e., is substantially free of phosphate). […] Generally, such a phosphate-limiting medium should contain phosphate at levels no more than about 1 millimolar, and preferably at levels no more than about 100 micromolar.
# For pre-growth of the strains, sources of phosphate were supplied to this culture medium in the form of Casamino acids at 2.2 grams per liter and yeast extract at 300 milligrams per liter. This culture medium was designated PF-CAA/YE culture medium (standing for PF culture medium plus Casamino acids and yeast extract).
# The untransformed host strain LBB427 and the host strain LBB427 transformed with the plasmid pXT1457 or with the plasmid pXT1483 were grown initially in 50 milliliters of the PF-CAA/YE culture medium described in Example 8. For the strains of LBB427 transformed with the plasmid pXT1457 or with the plasmid pXT1483, ampicillin was included in the culture medium at 100 milligrams per liter. The cultures were grown for 2.5 hours in flasks, on an incubator shaker operating at 300 rpm and 37 degrees Celsius. The cells in these cultures were pelleted by centrifugation and resuspended in the same volume of the PF culture medium described in Example 8. For the strains of LBB427 transformed with the plasmid pXT1457 or with the plasmid pXT1483, ampicillin was included in the culture medium at 100 milligrams per liter. To these resuspended cultures, N-(phosphonomethyl)glycine was added to a concentration of 3.38 grams per liter (20 millimolar). […] At 24 hours after inoculation (i.e., 21.5 hours after N-(phosphonomethyl)glycine addition), the cells were pelleted by centrifugation, and the culture supernatants were analyzed for shikimic acid content using the HPLC assay described in Example 5.
# It is possible that not all of the accumulated shikimate-3-phosphate in these cells had been converted into shikimic acid and excreted into the culture medium. […] The cells were pelleted by centrifugation, and the culture supernatant was analyzed for shikimic acid content using the HPLC assay described in Example 5.
# [3] = system: E. coli K-12 host strain LBB427, untransformed or transformed with plasmid pXT1457; assay: Treatment of E. coli strains with glyphosate in Vogel-Bonner minimal culture medium (Example 7); format: cell-based, Escherichia coli
# Description: To confirm that the new plasmid was functioning as expected, the wild-type E. coli K-12 host strain LBB427 was transformed with the plasmid pXT1457. Techniques for transforming bacteria, including strains of E. coli, are known in the art (Sambrook and Russell, 2001; Ausubel et al., 2005). The shikimic acid and phenylalanine production levels of this strain were compared to that of the untransformed host strain LBB427. The strains were cultured in 50 milliliters of Vogel-Bonner minimal culture medium (Vogel and Bonner, 1956), consisting of magnesium sulfate heptahydrate (MgSO4-7H2O) at 298 milligrams per liter, anhydrous dibasic potassium phosphate (K2HPO4) at 14.93 grams per liter, sodium ammonium phosphate tetrahydrate (NaNH4HPO4-4H2O) at 5.22 grams per liter, anhydrous citric acid (the free acid form) at 2.73 grams per liter, and glucose at 2.00 grams per liter. The pH of the culture medium was 7.0. For the strain LBB427 transformed with the plasmid pXT1457, ampicillin was included in the culture medium at 100 milligrams per liter. The cultures were grown in flasks, on an incubator shaker operating at 300 rpm and 37 degrees Celsius. At 24 hours after inoculation, the cells were pelleted by centrifugation, and the culture supernatants were analyzed by a high-pressure liquid chromatography (HPLC) assay for shikimic acid and phenylalanine content. To the samples to be assayed, phosphoric acid was added to a final concentration of 6 millimolar. The samples were injected onto a 0.5 centimeter by […] Altec 5 micron Bondapak C-18 column, and the eluate was scanned from 190 to 300 nanometers.
# The untransformed host strain LBB427 and the host strain LBB427 transformed with the plasmid pXT1457 were grown in 50 milliliters of the Vogel-Bonner minimal culture medium described in Example 5. For the strain LBB427 transformed with the plasmid pXT1457, ampicillin was included in the culture medium at 100 milligrams per liter. The cultures were grown in flasks, on an incubator shaker operating at 300 rpm and 37 degrees Celsius. At 2.5 hours after inoculation, N-(phosphonomethyl)glycine was added to a concentration of 3.38 grams per liter (20 millimolar). […] At 24 hours after inoculation (i.e., 21.5 hours after N-(phosphonomethyl)glycine addition), the cells were pelleted by centrifugation, and the culture supernatants were analyzed for shikimic acid content using the HPLC assay described in Example 5. The culture supernatants of the host strain LBB427 transformed with the plasmid pXT1457 were also analyzed for phenylalanine content.
# [4] = LBB427 transformed with pXT1457, 20 millimolar, 21.5 hours after addition
smiles,measurement,setting,value
"O=C(O)CNCP(=O)(O)O [glyphosate, N-(phosphonomethyl)glycine]",Shikimic acid in the culture supernatant,[1],about 24 grams of shikimic acid per liter
same,Shikimic acid accumulation in soybean leaves,Soybean,accumulates to significantly high levels
same,Shikimic acid accumulation in alfalfa leaves over time,Alfalfa,accumulates to significantly high levels
same,Shikimic acid in the culture supernatant,[2]; LBB427 transformed with pXT1457,about 250 milligrams of shikimic acid per OD unit per liter
same,Shikimic acid in the culture supernatant,[2]; LBB427 transformed with pXT1483,about 400 milligrams of shikimic acid per OD unit per liter
same,Level of shikimic acid in the culture supernatant after acid and heat treatment of the culture sample,"[2]; LBB427 transformed with pXT1483, sample with cells adjusted to pH 1.0, 60 degrees Celsius for 15 minutes",about 600 milligrams per OD unit per liter
same,Shikimic acid in the culture supernatant,[2]; untransformed host strain LBB427,about 200 milligrams of shikimic acid per OD unit per liter
same,Growth of the cultures,"[3]; 3.38 grams per liter (20 millimolar), added 2.5 hours after inoculation, LBB427 and LBB427 with pXT1457",almost completely inhibited
same,Phenylalanine in the culture supernatant,[3]; [4],about 50 milligrams of phenylalanine per OD unit per liter
same,Shikimic acid in the culture supernatant,[3]; [4],did not produce detectable levels
same,Shikimic acid in the culture supernatant,"[3]; untransformed host strain LBB427, 20 millimolar, 21.5 hours after addition",did not produce detectable levels
